Source: ChEMBL document CHEMBL1201862, “PubChem BioAssay data set” (2004)
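Growth conditions: 96-well plates. Treatment: test compound, 48 hours, 5 concentrations. Analysis: linear interpolation between bracketing concentrations; unreached endpoints set to highest concentration. GI50: concentration for 50% inhibition of growth.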 Calls of active or inactive are those of the source. Cut-off read from the data, not from the text of the source: active = GI50 up to about 1.1 µM and inactive = higher.

What was measured:
Test in all cases: DTP human tumour cell line panel, 48 h
[1] = tested on: 786-0
[2] = tested on: ACHN
[3] = tested on: COLO 205
[4] = tested on: HCT-116
[5] = tested on: HOP-62
[6] = tested on: HOP-92
[7] = tested on: IGROV-1
[8] = tested on: MCF7
[9] = tested on: MDA-MB-435
[10] = tested on: MDA-N
[11] = tested on: MOLT-4
[12] = tested on: Malme-3M
[13] = tested on: NCI-H522
[14] = tested on: NCI/ADR-RES
[15] = tested on: PC-3
[16] = tested on: RPMI-8226
[17] = tested on: SF-268
[18] = tested on: U-251
[19] = tested on: UACC-257
[20] = tested on: OVCAR-3

Measured: GI50

CCOC(=O)CN1C(=O)c2c(NC(=O)C(=O)O)cccc2S1(=O)=O
inactive: [1] > 100 µM | [2] > 100 µM | [3] > 100 µM | [4] > 100 µM | [5] > 100 µM | [6] > 100 µM | [7] > 100 µM | [8] > 100 µM | [9] > 100 µM | [10] > 100 µM | [11] > 100 µM | [12] > 100 µM | [13] > 100 µM | [14] > 100 µM | [15] > 100 µM | [16] > 100 µM | [17] > 100 µM | [18] > 100 µM | [19] > 100 µM

CCOC(C)O[C@H]1C(=O)OCC1(C)C (some centres not stated)
inactive: [1] > 100 µM | [2] > 100 µM | [3] > 100 µM | [5] > 100 µM | [6] > 100 µM | [7] > 100 µM | [8] > 100 µM | [9] > 100 µM | [10] > 100 µM | [11] 34.9 µM | [12] > 100 µM | [14] > 100 µM | [20] > 100 µM | [15] > 100 µM | [16] > 100 µM | [17] > 100 µM | [18] > 100 µM | [19] > 100 µM

CC(C)(C)c1cc(C(CO)OCCOCCO)cc(C(C)(C)C)c1O (configuration not stated)
inactive: [1] > 100 µM | [2] > 100 µM | [3] > 100 µM | [4] > 100 µM | [5] > 100 µM | [6] > 100 µM | [7] > 100 µM | [8] > 100 µM | [9] > 100 µM | [10] > 100 µM | [12] > 100 µM | [13] > 100 µM | [14] > 100 µM | [20] > 100 µM | [15] > 100 µM | [16] > 100 µM | [17] > 100 µM | [18] > 100 µM | [19] > 100 µM

[O-][n+]1c(CN2CCCCC2)nc2cccc3c2c1-c1ccccc1-3
inactive: [1] 16.7 µM | [2] 18.6 µM | [3] 16.9 µM | [4] 12.8 µM | [5] 19.6 µM | [6] 25.1 µM | [7] 23.5 µM | [8] 4.22 µM | [9] 32.1 µM | [10] 22.4 µM | [11] > 100 µM | [12] 14.3 µM | [14] 22.4 µM | [20] 21.6 µM | [15] 31.3 µM | [16] 23.7 µM | [18] 29.4 µM | [19] 18.4 µM

OC[C@H]1CCCC1O (some centres not stated)
inactive: [1] > 100 µM | [2] > 100 µM | [3] > 100 µM | [4] > 100 µM | [6] > 100 µM | [7] > 100 µM | [8] > 100 µM | [9] > 100 µM | [10] > 100 µM | [11] > 100 µM | [12] > 100 µM | [13] > 100 µM | [14] > 100 µM | [20] > 100 µM | [15] > 100 µM | [16] > 100 µM | [17] > 100 µM | [18] > 100 µM | [19] > 100 µM

NC(CCCCNc1ccn(C2OC(CO)C(O)C2O)c(=O)n1)C(=O)O (configuration not stated)
inactive: [1] > 100 µM | [2] > 100 µM | [3] > 100 µM | [6] 53.7 µM | [7] 65.8 µM | [8] > 100 µM | [9] 88.1 µM | [10] > 100 µM | [11] 73.3 µM | [12] > 100 µM | [13] > 100 µM | [14] > 100 µM | [20] > 100 µM | [15] > 100 µM | [16] > 100 µM | [17] > 100 µM | [18] 97.1 µM | [19] > 100 µM

CNc1ccc2nc(-c3ccc(OC(=O)N(C)C)cc3)cn2c1
inactive: [1] 14.5 µM | [2] 19.2 µM | [3] 17.1 µM | [4] 18.3 µM | [5] 18.8 µM | [6] 22.6 µM | [7] 17.9 µM | [8] 20.7 µM | [9] 17 µM | [10] 19.2 µM | [11] 17.8 µM | [12] 54.3 µM | [13] 13.7 µM | [14] 23.3 µM | [20] 40.7 µM | [15] 16 µM | [17] 16.5 µM | [18] 15.5 µM | [19] 50.4 µM

CSc1ccc(Nc2cc(=O)[nH]c(=O)[nH]2)cc1
inactive: [1] > 100 µM | [2] > 100 µM | [3] > 100 µM | [4] > 100 µM | [6] > 100 µM | [8] > 100 µM | [9] > 100 µM | [10] > 100 µM | [11] > 100 µM | [12] > 100 µM | [13] > 100 µM | [14] > 100 µM | [20] > 100 µM | [15] > 100 µM | [16] > 100 µM | [17] > 100 µM | [18] > 100 µM | [19] > 100 µM

O=P1(O)C=CC2(CCCC2)O1
inactive: [1] > 100 µM | [2] > 100 µM | [3] > 100 µM | [4] > 100 µM | [5] > 100 µM | [6] > 100 µM | [7] > 100 µM | [8] > 100 µM | [9] > 100 µM | [10] > 100 µM | [12] > 100 µM | [13] > 100 µM | [14] > 100 µM | [20] > 100 µM | [15] > 100 µM | [17] > 100 µM | [18] > 100 µM | [19] > 100 µM

O=C1CSC2(CC(/C=C/c3ccccc3)=NN2c2cccc(S(=O)(=O)O)c2)N1c1nc2ccccc2s1 (configuration not stated)
inactive: [1] 18.3 µM | [2] 27 µM | [3] > 100 µM | [4] 36.8 µM | [6] 21.7 µM | [7] 16.1 µM | [8] 17.1 µM | [9] 19.5 µM | [10] 35.2 µM | [11] 24.9 µM | [12] 69.7 µM | [13] 19.5 µM | [14] 34.1 µM | [15] 25.6 µM | [16] 24.6 µM | [18] 20.6 µM | [19] 60 µM

C[B@@-]1(c2ccc(C(F)(F)F)cc2)N[C@@H](Cc2ccccc2)C(=O)O1
inactive: [1] > 100 µM | [2] > 100 µM | [3] > 100 µM | [4] > 100 µM | [5] > 100 µM | [6] 11.9 µM | [7] > 100 µM | [8] > 100 µM | [9] > 100 µM | [10] > 100 µM | [11] > 100 µM | [12] > 100 µM | [14] > 100 µM | [20] > 100 µM | [15] > 100 µM | [16] > 100 µM | [17] > 100 µM | [18] > 100 µM | [19] > 100 µM
